Reference: PMC8611036, “An integrated method for optimized identification of effective natural inhibitors against SARS-CoV-2 3CLpro” (Scientific Reports, 2021)

Assays:
[1] = target: SARS-CoV-2 3CLpro (Severe acute respiratory syndrome coronavirus 2, UniProt P0DTD1); conditions: SARS-CoV pIC50 multiplied by similarity index (SI), training set compounds
[2] = tested on: SARS-CoV 3CLpro; conditions: SARS-CoV 3CLpro inhibitors (training set), ref: per compound, cited from earlier work; for pIC50: from literature IC50; for IC50: literature values
[3] = tested on: SARS-CoV 3CLpro; type: biochemical; conditions: activity class by pIC50 threshold 6
[4] = ref TCMSP database, cited from earlier work; for HBA: number of hydrogen-bond acceptors; for HBD: number of hydrogen-bond donors; for OB (%): oral bioavailability

Row | Molecule | SI*pIC50 [1] | pIC50 [2] | IC50 [2] | Inact.(<6)/Act.(>=6) [3] | HBA [4] | HBD [4] | OB (%) [4] | BBB [4] | Caco-2 [4] | FASA- [4] | NRotB [4] | HL [4]
1 | O=C(CSc1ncnc2c1sc1nc(N3CCOCC3)c3c(c12)CCCC3)NCc1ccco1 [CMP134] | 4.194 | 4.0423 | 90.7 µM | Inact. (Inact.(<6)) |  |  |  |  |  |  |  | 
2 | COc1ccc(-c2cc(=O)c3c(O)cc(O)c(-c4cc(-c5cc(=O)c6c(O)cc(OC)cc6o5)ccc4OC)c3o2)cc1 [CMP155] | 4.568 | 4.416 | 38.4 µM | Inact. (Inact.(<6)) |  |  |  |  |  |  |  | 
3 | O=[N+]([O-])c1ccc(S(=O)(=O)c2ccc(Cl)cc2)[n+]([O-])c1 [CMP121] | 4.976 | 4.824 | 15 µM | Inact. (Inact.(<6)) |  |  |  |  |  |  |  | 
4 | O=C1Nc2ccc(S(=O)(=O)N3CCCCC3)cc2C1=O [CMP145] | 5.503 | 5.352 | 4.45 µM | Inact. (Inact.(<6)) |  |  |  |  |  |  |  | 
5 | O=C(Cc1nccs1)c1nccs1 [CMP178] | 4.55 | 4.398 | 40 µM | Inact. (Inact.(<6)) |  |  |  |  |  |  |  | 
6 | CSc1[nH]nc(NC(=O)c2cccs2)c1S(=O)(=O)c1ccccc1 [CMP177] | 4.976 | 4.824 | 15 µM | Inact. (Inact.(<6)) |  |  |  |  |  |  |  | 
7 | O=c1cc(-c2ccc(O)cc2)oc2cc(O)cc(O)c12 [CMP152] | 3.704 | 3.552 | 281 µM | Inact. (Inact.(<6)) |  |  |  |  |  |  |  | 
8 | OC[C@@H](O)[C@@H](O)[C@H](O)[C@H](O)CO [MOL000003, MTL] |  |  |  |  | 6 | 6 | 17.73% | -4.07 | -1.58 | 0.18 | 5 | 
9 | O=C1C(=O)N(c2cccc3ccccc23)c2ccc(I)cc21 [CMP117] | 6.11 | 5.959 | 1.1 µM | Inact. (Inact.(<6)) |  |  |  |  |  |  |  | 
10 | O=C1C(=O)N(Cc2ccc(C(=O)N3CCCCC3)s2)c2ccc(I)cc21 [CMP100] | 4.909 | 4.757 | 17.5 µM | Inact. (Inact.(<6)) |  |  |  |  |  |  |  | 
11 | O=c1[nH]c2cc(Cl)cc(Cl)c2c(O)c1Sc1nnnn1-c1ccc(O)cc1 [CMP110] | 5.127 | 4.975 | 10.6 µM | Inact. (Inact.(<6)) |  |  |  |  |  |  |  | 
12 | O=C1C(=O)N(Cc2ccccc2)c2ccc(S(=O)(=O)N3CCCCC3)cc21 [CMP176] | 5.006 | 4.854 | 14 µM | Inact. (Inact.(<6)) |  |  |  |  |  |  |  | 
13 | cyanidol [MOL000002] |  |  |  |  | 6 | 5 | 1.36% | -0.51 |  | 0.34 | 1 | 
14 | O=C(Oc1cncc(Cl)c1)c1cc2ccccc2o1 [CMP169] | 6.921 | 6.77 | 0.17 µM | Act. (Act.(>=6)) |  |  |  |  |  |  |  | 
15 | CC(=O)n1nc(SSc2ccccc2[N+](=O)[O-])nc1C [CMP120] | 5.656 | 5.504 | 3.13 µM | Inact. (Inact.(<6)) |  |  |  |  |  |  |  | 
16 | O=c1cc(-c2ccc(O)c(O)c2)oc2cc(O)cc(O)c12 [MOL000006, luteolin] |  |  |  |  | 6 | 4 | 36.16% | -0.84 | 0.19 | 0.39 | 1 | 15.94
17 | O=C(Oc1cncc(Cl)c1)c1cc2ccccc2s1 [CMP140] | 7.152 | 7 | 0.1 µM | Act. (Act.(>=6)) |  |  |  |  |  |  |  | 
18 | COc1cc(O)c2c(=O)cc(-c3ccc(OC)c(-c4c(O)cc(O)c5c(=O)cc(-c6ccc(O)cc6)oc45)c3)oc2c1 [CMP150] | 4.6468 | 4.495 | 32 µM | Inact. (Inact.(<6)) |  |  |  |  |  |  |  | 
19 | Clc1ccc(C2C(n3ccnc3)C(c3ccc(Br)cc3)=NN2c2ccc(Cl)c(Cl)c2)cc1 (stereo not drawn) [CMP112] | 5.754 | 5.602 | 2.5 µM | Inact. (Inact.(<6)) |  |  |  |  |  |  |  | 
20 | O=c1cc(-c2ccc(O)c(-c3c(O)cc(O)c4c(=O)cc(-c5ccc(O)cc5)oc34)c2)oc2cc(O)cc(O)c12 [CMP154] | 5.233 | 5.081 | 8.3 µM | Inact. (Inact.(<6)) |  |  |  |  |  |  |  | 
21 | Nc1nc(CSc2nnc(-c3cccc4ccccc34)n2-c2ccccc2)cs1 [CMP135] | 4.386 | 4.234 | 58.3 µM | Inact. (Inact.(<6)) |  |  |  |  |  |  |  | 
